Here are results for 24 compounds from patent US20080153806A1, “Novel Diazabicyclic Aryl Derivatives And Their Medical Use” (priority 2004, published 2008).

pIC50: −log10 of the molar value. Where a name gives a salt, the structure may show the parent alone. Read-outs that look alike come from different tables or passages of the source.

What is called melting point is the temperature, or range, at which the solid turns liquid.

In series [1] the target is T1, α7-subtype of nicotinic receptors (Rattus norvegicus, UniProt Q05941).
T1 construct: Cerebral cortices from male Wistar rats (150-250 g) are homogenised; from tissue; host or cells: rat cerebral cortex membrane homogenate (male Wistar rats)
As to the kind of experiment: In vitro inhibition of 3H-α-bungarotoxine binding in rat brain. The settings on record: rat cerebral cortex homogenate, 2 hours at 37° C., read-out: IC50 (concentration of the test substance which inhibits the specific binding of 3H-α-bungarotoxine by 50%).

T1 sequence (Q05941 23-502): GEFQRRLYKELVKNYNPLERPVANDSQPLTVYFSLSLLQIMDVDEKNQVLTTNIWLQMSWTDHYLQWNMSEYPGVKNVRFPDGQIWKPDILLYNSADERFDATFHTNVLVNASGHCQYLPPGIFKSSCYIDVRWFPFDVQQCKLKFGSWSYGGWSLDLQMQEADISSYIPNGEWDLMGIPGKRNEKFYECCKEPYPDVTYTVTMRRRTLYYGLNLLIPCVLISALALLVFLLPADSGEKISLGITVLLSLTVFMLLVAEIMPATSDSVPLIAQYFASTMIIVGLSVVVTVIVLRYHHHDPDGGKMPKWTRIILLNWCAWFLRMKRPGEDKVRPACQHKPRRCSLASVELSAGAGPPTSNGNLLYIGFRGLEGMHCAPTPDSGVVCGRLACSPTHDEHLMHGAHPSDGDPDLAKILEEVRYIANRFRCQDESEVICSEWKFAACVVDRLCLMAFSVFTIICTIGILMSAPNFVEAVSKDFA

Regarding `CN1C2CCC1CN(c1ccc(-c3ccccc3)nn1)C2`, the melting point came to 151 °C.

In turn, `CN1C2CCC1CN(c1ccc(-c3ccc(F)cc3)nn1)C2` came in with a melting point of 164 to 165 °C. Still for that read-out and setting: under `CN1C2CCC1CN(c1ccc(-c3ccccc3)cn1)C2` stands 110.5 °C. Same read-out and setting: under `COc1ccccc1-c1ccc(N2CC3CCC(C2)N3C)nn1` stands 170 to 172 °C; under `COc1cccc(-c2ccc(N3CC4CCC(C3)N4C)nn2)c1`, 92 to 97 °C; under `CN1C2CCC1CN(c1ccc(-c3cccc(Cl)c3)nn1)C2`, 159 °C.

`CN1C2CCC1CN(c1ccc(-c3ccc(Cl)cc3)nn1)C2` registered a melting point of 180 °C.

`CN1C2CCC1CN(c1ccc(-c3cccnc3)nn1)C2` registered a melting point of 131 to 133 °C.

The compound `COc1ccc(-c2ccc(N3CC4CCC(C3)N4C)nn2)cc1` had a melting point of 154 to 155 °C. Same read-out and setting: in the case of `CN1C2CCC1CN(c1nnc(-c3ccccc3)s1)C2` (as salt: fumaric acid salt) it was 192 to 200 °C. Same read-out and setting: in the case of `CN1C2CCC1CN(c1nnc(-c3ccccc3)o1)C2` (as salt: fumaric acid salt) it was 170 to 191 °C; in that of `CN1C2CCC1CN(c1cccc(-c3ccccc3)n1)C2` (as salt: fumaric acid salt), 159 to 160 °C. The same measure, in the same setting: under `CN1C2CCC1CN(c1ccc(-c3ccccc3N)nn1)C2` (as salt: fumaric acid salt) stands 186 to 195 °C. As to `CC(=O)Nc1ccccc1-c1ccc(N2CC3CCC(C2)N3C)nn1` (as salt: fumaric acid salt), the melting point fell in the range of 219 to 222 °C. The compound `CN1C2CCC1CN(c1ccc(-c3ccccc3Cl)nn1)C2` (as salt: fumaric acid salt) showed a melting point of 192 to 200 °C.

Compound `COc1ccc2cc(-c3ccc(N4CC5CCC(C4)N5C)nn3)ccc2c1` (as salt: fumaric acid salt) registered a melting point of 242 °C.

In the case of `CN1C2CCC1CN(c1ccc(-c3cccs3)nn1)C2` [Compound E1, 8-Methyl-3-(6-thiophen-2-yl-pyridazin-3-yl)-3,8-diaza-bicyclo[3.2.1]octane], the melting point is 156 °C. Besides, the pIC50 in series [1] (3H-α-bungarotoxine 2 nM) is greater than 6.00. In the same order, the values of `CN1C2CCC1CN(c1ccc(-c3ccsc3)nn1)C2` [Compound E2, 8-Methyl-3-(6-thiophen-3-yl-pyridazin-3-yl)-3,8-diaza-bicyclo[3.2.1]octane] are 172 to 173 °C and greater than 6.00. Turning to `CN1C2CCC1CN(c1ccc(-c3ccco3)nn1)C2` [Compound E3, 3-(6-Furan-2-yl-pyridazin-3-yl)-8-methyl-3,8-diaza-bicyclo[3.2.1]octane], the melting point was 144 °C. The pIC50 in series [1] (3H-α-bungarotoxine 2 nM) is greater than 6.00. In the same order, the values of `CN1C2CCC1CN(c1ccc(-c3ccoc3)nn1)C2` [Compound E5, 3-(6-Furan-3-yl-pyridazin-3-yl)-8-methyl-3,8-diaza-bicyclo[3.2.1]octane] are 152 °C and greater than 6.00.

The compound `CN1C2CCC1CN(c1ccc(-c3cccc(N)c3)nn1)C2` [Compound E7, 3-[6-(8-Methyl-3,8-diaza-bicyclo[3.2.1]oct-3-yl)-pyridazin-3-yl]-phenylamine] came in with a melting point of 164 °C. In series [1] (3H-α-bungarotoxine 2 nM), the pIC50 is greater than 6.00.

`CC(=O)Nc1cccc(-c2ccc(N3CC4CCC(C3)N4C)nn2)c1` [Compound E8, N-{3-[6-(8-Methyl-3,8-diaza-bicyclo[3.2.1]oct-3-yl)-pyridazin-3-yl]-phenyl}-acetamide] yielded a melting point of 74 °C. Also, in series [1] ([…]), the pIC50 is greater than 6.00. `CN1C2CCC1CN(c1ccc(-c3ccccc3F)nn1)C2` [Compound E9, 3-[6-(2-Fluoro-phenyl)-pyridazin-3-yl]-8-methyl-3,8-diaza-bicyclo[3.2.1]octane] returned a melting point of 152 °C. Moreover, the pIC50 in series [1] ([…]) is greater than 6.00. Compound `CN1C2CCC1CN(c1ccc(-c3cccc(F)c3)nn1)C2` [Compound E11, 3-[6-(3-Fluoro-phenyl)-pyridazin-3-yl]-8-methyl-3,8-diaza-bicyclo[3.2.1]octane] gave a melting point of 149 to 150 °C. In series [1] (3H-α-bungarotoxine 2 nM), the pIC50 is greater than 6.00.
